According to patent US20110166112A1, “METHOD FOR STIMULATING PLATELET PRODUCTION” (Eisai, Inc., priority 2009, published 2011):
Marks after values point to notes of the source that are not given here.

Test system: subjects with chronic ITP
Assay: Recurrence of thrombocytopenia upon discontinuation of E5501 (platelet count below 10,000/mm^3)
Format: in vivo, human
Conditions: for Recurrence of thrombocytopenia: Relation To E5501: assessed by the investigator
Description: Recurrence of Thrombocytopenia. Recurrence of thrombocytopenia has been previously reported and is of special interest in this population. Recurrence of thrombocytopenia was defined as a platelet count that decreased to below 10,000/mm^3 upon discontinuation of E5501. In this study, 9 subjects potentially met the criteria for recurrence of thrombocytopenia. Three were deemed serious; all 3 recovered.
All 9 cases occurred at an E5501 dose of 10 mg or above, and the majority (n=6/9) occurred within 2 weeks after discontinuation of E5501 (FIG. 3). However, recurrent thrombocytopenia was seen up to 4 weeks after the last dose of study drug.

O=C(Nc1nc(-c2cc(Cl)cs2)c(N2CCN(C3CCCCC3)CC2)s1)c1cnc(N2CCC(C(=O)O)CC2)c(Cl)c1 [E5501, 1-(3-chloro-5-{[4-(4-chlorothiophen-2-yl)-5-(4-cyclohexylpiperazin-1-yl)thiazol-2-yl]carbamoyl}pyridine-2-yl)piperidine-4-carboxylic acid]
Recurrence of thrombocytopenia: Outcome (Subject A, 20-30 mg, 1st entry): Recovered | Recurrence of thrombocytopenia: Platelet Count (Subject A, 20-30 mg, 1st entry): 3 K/mm^3 | Recurrence of thrombocytopenia: Serious (Subject A, 20-30 mg, 1st entry): No | Recurrence of thrombocytopenia: Study Days (No. Days Posttreatment) (Subject A, 20-30 mg, 1st entry): 193 (17) Days | Recurrence of thrombocytopenia: Relation To E5501 (Subject A, 20-30 mg, 1st entry): Not related | Recurrence of thrombocytopenia: Outcome (Subject A, 20-30 mg, 2nd entry): Recovered | Recurrence of thrombocytopenia: Platelet Count (Subject A, 20-30 mg, 2nd entry): 6 K/mm^3 | Recurrence of thrombocytopenia: Serious (Subject A, 20-30 mg, 2nd entry): No | Recurrence of thrombocytopenia: Study Days (No. Days Posttreatment) (Subject A, 20-30 mg, 2nd entry): 235 (59) Days | Recurrence of thrombocytopenia: Relation To E5501 (Subject A, 20-30 mg, 2nd entry): Not related | Recurrence of thrombocytopenia: Outcome (Subject A, 20-30 mg, 3rd entry): Recovered | Recurrence of thrombocytopenia: Platelet Count (Subject A, 20-30 mg, 3rd entry): 4 K/mm^3 | Recurrence of thrombocytopenia: Serious (Subject A, 20-30 mg, 3rd entry): No | Recurrence of thrombocytopenia: Study Days (No. Days Posttreatment) (Subject A, 20-30 mg, 3rd entry): 249 (73) Days | Recurrence of thrombocytopenia: Relation To E5501 (Subject A, 20-30 mg, 3rd entry): Not related | Recurrence of thrombocytopenia: Platelet Count (Subject B, 10 mg): 1 K/mm^3 | Recurrence of thrombocytopenia: Serious (Subject B, 10 mg): No | Recurrence of thrombocytopenia: Study Days (No. Days Posttreatment) (Subject B, 10 mg): 209 (28) Days | Recurrence of thrombocytopenia: Outcome (Subject C, 10-20 mg): Recovered | Recurrence of thrombocytopenia: Platelet Count (Subject C, 10-20 mg): 6 K/mm^3 | Recurrence of thrombocytopenia: Serious (Subject C, 10-20 mg): No | Recurrence of thrombocytopenia: Study Days (No. Days Posttreatment) (Subject C, 10-20 mg): 182 (14) Days | Recurrence of thrombocytopenia: Relation To E5501 (Subject C, 10-20 mg): Probably | Recurrence of thrombocytopenia: Outcome (Subject D, 20 mg): Recovered | Recurrence of thrombocytopenia: Platelet Count (Subject D, 20 mg): 1 K/mm^3 | Recurrence of thrombocytopenia: Serious (Subject D, 20 mg): Serious | Recurrence of thrombocytopenia: Study Days (No. Days Posttreatment) (Subject D, 20 mg): 193 (10) Days | Recurrence of thrombocytopenia: Relation To E5501 (Subject D, 20 mg): Not related | Recurrence of thrombocytopenia: Platelet Count (Subject E, 10 mg): 8 K/mm^3 | Recurrence of thrombocytopenia: Serious (Subject E, 10 mg): No | Recurrence of thrombocytopenia: Study Days (No. Days Posttreatment) (Subject E, 10 mg): 209 (7) Days | Recurrence of thrombocytopenia: Outcome (Subject F, 20 mg): Recovered | Recurrence of thrombocytopenia: Platelet Count (Subject F, 20 mg): 8 K/mm^3 | Recurrence of thrombocytopenia: Serious (Subject F, 20 mg): Serious | Recurrence of thrombocytopenia: Study Days (No. Days Posttreatment) (Subject F, 20 mg): 192 (11) Days | Recurrence of thrombocytopenia: Relation To E5501 (Subject F, 20 mg): Not related | Recurrence of thrombocytopenia: Outcome (Subject G, 2.5-12.5 mg): Recovered | Recurrence of thrombocytopenia: Serious (Subject G, 2.5-12.5 mg): Serious | Recurrence of thrombocytopenia: Study Days (No. Days Posttreatment) (Subject G, 2.5-12.5 mg): 179 (13) Days | Recurrence of thrombocytopenia: Relation To E5501 (Subject G, 2.5-12.5 mg): Probably | Recurrence of thrombocytopenia: Platelet Count (Subject G, 2.5-12.5 mg, recorded 3 days before the event): 16^g K/mm^3 | Recurrence of thrombocytopenia: Outcome (Subject H, 10-40 mg): Recovered | Recurrence of thrombocytopenia: Platelet Count (Subject H, 10-40 mg): 4 K/mm^3 | Recurrence of thrombocytopenia: Serious (Subject H, 10-40 mg): No | Recurrence of thrombocytopenia: Study Days (No. Days Posttreatment) (Subject H, 10-40 mg): 143 (16) Days | Recurrence of thrombocytopenia: Relation To E5501 (Subject H, 10-40 mg): Not related | Recurrence of thrombocytopenia: Outcome (Subject I, 10-20 mg, 1st entry): Recovered | Recurrence of thrombocytopenia: Platelet Count (Subject I, 10-20 mg, 1st entry): 8 K/mm^3 | Recurrence of thrombocytopenia: Serious (Subject I, 10-20 mg, 1st entry): No | Recurrence of thrombocytopenia: Study Days (No. Days Posttreatment) (Subject I, 10-20 mg, 1st entry): 181 (13) Days | Recurrence of thrombocytopenia: Relation To E5501 (Subject I, 10-20 mg, 1st entry): Not related | Recurrence of thrombocytopenia: Outcome (Subject I, 10-20 mg, 2nd entry): Recovered | Recurrence of thrombocytopenia: Platelet Count (Subject I, 10-20 mg, 2nd entry): 9 K/mm^3 | Recurrence of thrombocytopenia: Serious (Subject I, 10-20 mg, 2nd entry): No | Recurrence of thrombocytopenia: Study Days (No. Days Posttreatment) (Subject I, 10-20 mg, 2nd entry): 233 (65) Days | Recurrence of thrombocytopenia: Relation To E5501 (Subject I, 10-20 mg, 2nd entry): Not related | recurrences of thrombocytopenia deemed serious (in vivo): Three | recurrences of thrombocytopenia within 2 weeks after discontinuation of E5501 (of 9 cases): 6 n | subjects who potentially met the criteria for recurrence of thrombocytopenia (upon discontinuation, E5501 dose of 10 mg or above): 9 subjects
